Measured values taken from US20190115105A1, “TANDEM DUPLICATOR PHENOTYPE (TDP) AS A DISTINCT GENOMIC CONFIGURATION IN CANCER AND USE THEREOF” (The Jackson Laboratory, priority 2016, published 2019).
Read-outs that look alike come from different tables or passages of the source.

Key:
HCC1187 [1] = conditions: HCC1187, TNBC, TDP, TDP Score 0.152; GDSC data base; cited from earlier work
HCC2157 = conditions: HCC2157, TNBC, TDP, TDP Score 0.076; GDSC data base; cited from earlier work
HCC1599 [2] = conditions: HCC1599, TNBC, non-TDP, TDP Score −0.447; GDSC data base; cited from earlier work
HCC2218 = conditions: HCC2218, ERBB2+, non-TDP, TDP Score −0.849; GDSC data base; cited from earlier work
MB436 = test: Cell viability IC50 (WST-8), MB436; type: cell-based, human; conditions: MB436, TDP Score 0.469, 72 hours
Source text: (§1) All of the cell lines were purchased from the American Type Culture Collection (ATCC). They were authenticated by Short Tandem Repeat (STR) DNA profiling and regularly tested for Mycoplasma contamination using the MycoAlert PLUS Mycoplasma Detection Kit (Lonza). MB436, HCC38, HCC1187, HCC1395, MDA-MB231, HCC1937, HCC1599, HCC1143, HCC70, DU4475, MDA-MB157, HCC1806 were maintained in RPMI with 10% fetal bovine serum (FBS). BT549 was maintained in DMEM with 10% v/v FBS, and Hs578T in DMEM with 10% FBS and 0.01 mg/ml bovine insulin. IC50 value determinations were obtained by plating target cells in 96 well plates at a density of 1-5×10^3 cells per well. After twenty-four hours, cisplatin (Santa Cruz Biotechnology, Inc.) or carboplatin (Selleck Chemicals) were added to the culture medium in half-log serial dilutions in the range of 3.3 nM to 100 μM, in triplicate wells. Cells were incubated for 72 hours before assessing cell viability using the WST-8 assay (Dojindo Molecular Technologies, Inc.). Absorbance values were normalized to control wells (medium only) and IC50 values were calculated using the IC50R package. Two independent replicate experiments were carried out for each cell line and each treatment and the average IC50 value from the two experiments was used for the analysis.

HCC38 [3] = test: Cell viability IC50 (WST-8), HCC38; type: cell-based, human; conditions: HCC38, TDP Score 0.367, 72 hours
Source text: as §1

HCC1187 [4] = test: Cell viability IC50 (WST-8), HCC1187; type: cell-based, human; conditions: HCC1187, TDP Score 0.152, 72 hours
Source text: as §1

HCC1395 [5] = test: Cell viability IC50 (WST-8), HCC1395; type: cell-based, human; conditions: HCC1395, TDP Score 0.118, 72 hours
Source text: as §1

HCC1806 = test: Cell viability IC50 (WST-8), HCC1806; type: cell-based, human; conditions: HCC1806, TDP Score 0.08, 72 hours
Source text: as §1

HCC1937 [6] = test: Cell viability IC50 (WST-8), HCC1937; type: cell-based, human; conditions: HCC1937, TDP Score −0.17, 72 hours
Source text: as §1

BT549 = test: Cell viability IC50 (WST-8), BT549; type: cell-based, human; conditions: BT549, TDP Score −0.3, 72 hours
Source text: as §1

HCC70 = test: Cell viability IC50 (WST-8), HCC70; type: cell-based, human; conditions: HCC70, TDP Score −0.3, 72 hours
Source text: as §1

MB231 [7] = test: Cell viability IC50 (WST-8), MB231; type: cell-based, human; conditions: MB231, TDP Score −0.306, 72 hours
Source text: as §1

DU4475 = test: Cell viability IC50 (WST-8), DU4475; type: cell-based, human; conditions: DU4475, TDP Score −0.36, 72 hours
Source text: as §1

MB157 = test: Cell viability IC50 (WST-8), MB157; type: cell-based, human; conditions: MB157, TDP Score −0.39, 72 hours
Source text: as §1

HCC1143 = test: Cell viability IC50 (WST-8), HCC1143; type: cell-based, human; conditions: HCC1143, TDP Score −0.424, 72 hours
Source text: as §1

HCC1599 [8] = test: Cell viability IC50 (WST-8), HCC1599; type: cell-based, human; conditions: HCC1599, TDP Score −0.447, 72 hours
Source text: as §1

Hs578T = test: Cell viability IC50 (WST-8), Hs578T; type: cell-based, human; conditions: TDP Score −0.54, 72 hours
Source text: as §1

[9] = test system: TNBC patient derived xenograft (PDX) models; test: In vivo response in patient derived xenograft (PDX) models of TNBC; design: species or system mice; conditions: for association of the TDP with sensitivity in PDX models: same eight TNBC PDX models, data not shown
Source text: This hypothesis was explored further by testing in vivo response to cisplatin treatment in eight independent patient derived xenograft (PDX) models of TNBC. […] Thus in both established cell lines and in in vivo patient derived xenografts, TDP status is strongly associated with cisplatin sensitivity.
TNBC patient-derived xenograft models were established at The Jackson Laboratory campus in Sacramento (JAX-West) and tested for cisplatin sensitivity as previously published. All animal procedures were performed under IACUC protocol #12027. Briefly, patient tumor material acquired from biopsy or surgical resection was implanted subcutaneously into the flank of NOD-scid IL2r gamma-chain null female mice (8-10 week-old). Models were considered “established” when log-phase growth in a second passage was evident. Individual tumor-bearing mice were randomized into treatments cohorts of at least six animals each on an accrual basis when tumors reached a volume of 150 mm^3 (day 0), at which point each tumor model was assessed for its response to cisplatin treatment, administrated at a dose of 2 mg/kg body weight and following a three-week regimen consisting of one IV injection per week. Changes in tumor volumes were measured twice a week for four full weeks from the beginning of the treatment or until tumor volumes reached the 1500 mm^3 endpoint. Treatment outcome was evaluated in terms of total response (percentage of tumor shrinkage/growth at day 20 relative to day 0). The […] TNBC PDX models that were available as part of The Jackson Laboratory inventory of TNBC PDX Live™ tumor-bearing mice were analyzed. In combination with a high number of replicates per model (6-10 animals per treatment arm), enough power to observe the statistically significant effect of the TDP configuration on cisplatin response was obtained.

HCC38 [10] = conditions: HCC38, TNBC, TDP, TDP Score 0.367; GDSC data base; cited from earlier work
HCC1395 [11] = conditions: HCC1395, TNBC, TDP, TDP Score 0.118; GDSC data base; cited from earlier work
HCC1937 [12] = conditions: HCC1937, TNBC, non-TDP, TDP Score −0.17; GDSC data base; cited from earlier work
T47D = conditions: ER/PR+, non-TDP, TDP Score −0.269, GDSC data base; cited from earlier work
MB231 [13] = conditions: MB231, TNBC, non-TDP, TDP Score −0.306; GDSC data base; cited from earlier work
HCC1954 = conditions: HCC1954, ERBB2+, non-TDP, TDP Score −0.434; GDSC data base; cited from earlier work
MCF-7 = conditions: MCF-7, ER/PR+, TDP, TDP Score 0.385; GDSC data base; cited from earlier work

## Cc1cc(N2CCOCC2)cc2[nH]c(-c3c(NC[C@@H](O)c4cccc(Cl)c4)cc[nH]c3=O)nc12 [BMS-536924]
HCC1187 [1]
  IC50 Ln (μM): 2.81 Ln (μM)
HCC2157
  IC50 Ln (μM): 3.64 Ln (μM)
HCC1599 [2]
  IC50 Ln (μM): 5.27 Ln (μM)
HCC2218
  IC50 Ln (μM): 6.22 Ln (μM)

## N.N.[Cl][Pt][Cl] [Cisplatin, cisplatin]
MB436
  IC50 Ln (μM): 1.17 Ln (μM)
HCC38 [3]
  IC50 Ln (μM): 2.8 Ln (μM)
HCC1187 [4]
  IC50 Ln (μM): 2.15 Ln (μM)
HCC1395 [5]
  IC50 Ln (μM): 2.4 Ln (μM)
HCC1806
  IC50 Ln (μM): 2.76 Ln (μM)
HCC1937 [6]
  IC50 Ln (μM): 3.22 Ln (μM)
BT549
  IC50 Ln (μM): 2.28 Ln (μM)
HCC70
  IC50 Ln (μM): 2.75 Ln (μM)
MB231 [7]
  IC50 Ln (μM): 3.52 Ln (μM)
DU4475
  IC50 Ln (μM): 2.04 Ln (μM)
MB157
  IC50 Ln (μM): 2.62 Ln (μM)
HCC1143
  IC50 Ln (μM): 3.3 Ln (μM)
HCC1599 [8]
  IC50 Ln (μM): 2.65 Ln (μM)
Hs578T
  IC50 Ln (μM): 3.62 Ln (μM)
[9]; all five TDP PDX models, three-week regimen, 2 mg/kg IV weekly
  tumor growth compared to the vehicle arm: significant reduction in tumor growth
[9]; four out of the five TDP PDX models, three-week regimen, 2 mg/kg, one IV injection per week
  tumor shrinkage of individual tumors (partial response): > 80%
[9]; three non-TDP PDX models, 2 mg/kg IV weekly
  reduction in tumor volume after three weeks of treatment: none of the three non-TDP models analyzed exhibited a reduction in tumor volume
[9]; three non-TDP PDX models, three-week regimen, 2 mg/kg IV weekly
  response compared to the vehicle arm: only one out of the three models showed a significant response
HCC38 [10]
  IC50 Ln (μM): 5.07 Ln (μM)
HCC1187 [1]
  IC50 Ln (μM): 4.76 Ln (μM)
HCC1395 [11]
  IC50 Ln (μM): 4.96 Ln (μM)
HCC1937 [12]
  IC50 Ln (μM): 4.92 Ln (μM)
T47D
  IC50 Ln (μM): 4.86 Ln (μM)
MB231 [13]
  IC50 Ln (μM): 5.57 Ln (μM)
HCC1954
  IC50 Ln (μM): 6.94 Ln (μM)
HCC2218
  IC50 Ln (μM): 5.99 Ln (μM)

## Nc1ccn([C@@H]2O[C@H](CO)[C@@H](O)[C@@H]2O)c(=O)n1 [Cytarabine]
MCF-7
  IC50 Ln (μM): 0.69 Ln (μM)
HCC38 [10]
  IC50 Ln (μM): 0.63 Ln (μM)
HCC1187 [1]
  IC50 Ln (μM): 3.36 Ln (μM)
HCC1395 [11]
  IC50 Ln (μM): 1.1 Ln (μM)
HCC1937 [12]
  IC50 Ln (μM): 3.32 Ln (μM)
T47D
  IC50 Ln (μM): 3.47 Ln (μM)
MB231 [13]
  IC50 Ln (μM): 2.18 Ln (μM)
HCC1954
  IC50 Ln (μM): 3.41 Ln (μM)
HCC2218
  IC50 Ln (μM): 4.68 Ln (μM)

## COc1cc(N2CCC(N3CCN(C)CC3)CC2)ccc1Nc1ncc(Cl)c(Nc2ccccc2S(=O)(=O)C(C)C)n1 [NVP-TAE684]
HCC1187 [1]
  IC50 Ln (μM): 0.62 Ln (μM)
HCC2157
  IC50 Ln (μM): 0.38 Ln (μM)
HCC1599 [2]
  IC50 Ln (μM): 2.98 Ln (μM)
HCC2218
  IC50 Ln (μM): 5.37 Ln (μM)

## O=C(c1cc(Cc2n[nH]c(=O)c3ccccc23)ccc1F)N1CCN(C(=O)C2CC2)CC1 [Olaparib, olaparib]
MB436
  IC50 Ln (μM): 3.77 Ln (μM)
HCC38 [3]
  IC50 Ln (μM): 1.99 Ln (μM)
HCC1187 [4]
  IC50 Ln (μM): 3.57 Ln (μM)
HCC1395 [5]
  IC50 Ln (μM): 4.28 Ln (μM)
HCC1806
  IC50 Ln (μM): 2.40 Ln (μM)
HCC1937 [6]
  IC50 Ln (μM): 4.51 Ln (μM)
BT549
  IC50 Ln (μM): 3.09 Ln (μM)
HCC70
  IC50 Ln (μM): 4.19 Ln (μM)
MB231 [7]
  IC50 Ln (μM): 3.49 Ln (μM)
MB157
  IC50 Ln (μM): 3.16 Ln (μM)
HCC1143
  IC50 Ln (μM): 4.57 Ln (μM)
Hs578T
  IC50 Ln (μM): 4.61 Ln (μM)

## CC(=O)O[C@@]12CO[C@@H]1C[C@H](O)[C@@]1(C)C(=O)[C@H](O)C3=C(C)[C@@H](OC(=O)[C@H](O)[C@@H](NC(=O)OC(C)(C)C)c4ccccc4)C[C@@](O)([C@@H](OC(=O)c4ccccc4)[C@H]21)C3(C)C [docetaxel]
[9]
  association of the TDP with sensitivity in PDX models: not associated with sensitivity

## COc1cccc2c1C(=O)c1c(O)c3c(c(O)c1C2=O)C[C@@](O)(C(=O)CO)C[C@@H]3O[C@H]1C[C@H](N)[C@H](O)[C@H](C)O1 [doxorubicin]
[9]
  association of the TDP with sensitivity in PDX models: not associated with sensitivity
